“Also recorded” adds a separate entry of the source.
Experiments:
Format in all cases: physicochemical
[1] = Gravimetric Vapor Sorption (GVS), hygroscopicity
Procedure: Sorption isotherms were obtained using a SMS DVS Intrinsic moisture sorption analyzer, controlled by DVS Intrinsic Control software v1.0.1.2 (or v 1.0.1.3). The sample temperature was maintained at 25° C. by the instrument controls. The humidity was controlled by mixing streams of dry and wet nitrogen, with a total flow rate of 200 mL/min. The relative humidity was measured by a calibrated Rotronic probe (dynamic range of 1.0-100% RH), located near the sample. The weight change, (mass relaxation) of the sample as a function of % RH was constantly monitored by the microbalance (accuracy ±0.005 mg).
Typically, 5-20 mg of sample was placed in a tared mesh stainless steel basket under ambient conditions. The sample was loaded and unloaded at 40% RH and 25° C. (typical room conditions). A moisture sorption isotherm was performed as outlined below (2 scans giving 1 complete cycle). The standard isotherm was performed at 25° C. at 10% RH intervals over a 0-90% RH range. Data analysis was carried out using Microsoft Excel using DVS Analysis Suite v6.2 (or 6.1 or 6.0).

[2] = Storage stability at controlled temperature / relative humidity
[3] = Aqueous solubility at 25° C.; settings: water
[4] = Variable Temperature XRPD (physical stability on heating); settings: upon heating
Procedure: X-Ray Powder Diffraction patterns were collected on a Bruker AXS C2 GADDS diffractometer using Cu Kα radiation (40 kV, 40 mA), automated XYZ stage, laser video microscope for auto-sample positioning and a HiStar 2-dimensional area detector. X-ray optics consists of a single Gobel multilayer mirror coupled with a pinhole collimator of 0.3 mm. A weekly performance check is carried out using a certified standard NIST 1976 Corundum (flat plate).
The beam divergence, i.e., the effective size of the X-ray beam on the sample, was approximately 4 mm. A 0-0 (theta-theta) continuous scan mode was employed with a sample—detector distance of 20 cm which gives an effective 20 (theta) range of 3.2°-29.7°. Typically, the sample would be exposed to the X-ray beam for 120 seconds. The software used for data collection was GADDS for XP/2000 4.1.43 and the data were analyzed and presented using Diffrac Plus EVA v15.0.0.0.
Samples run under non-ambient conditions were mounted on a silicon wafer with heat-conducting compound. The sample was then heated to the appropriate temperature at 20° C./min and subsequently held isothermally for 1 minute before data collection was initiated.

[5] = listed as Amorphous Form of Compound 1-Na

**Q.** Which results are given for `CC[C@H]1[C@@H](O)C2C3CC[C@H]([C@H](C)CCOS(=O)(=O)[O-])[C@@]3(C)CCC2[C@@]2(C)CC[C@@H](O)C[C@@H]12.[Na+]` (stereo partly drawn) [6α-ethyl-3α,7α,23-trihydroxy-24-nor-5β-cholan-23-sulphate sodium]?
**A.** GVS water uptake from 40% to 60% RH ([1]; 40% to 60% RH): 2.6% w/w of water uptake from 40% to 60% RH.; XRPD post GVS ([1]; after GVS): Unchanged; GVS hysteresis (process reversible) ([1]; sorption/desorption): ~1% w/w; GVS total water uptake ([1]; whole GVS cycle): Total of 8% w/w water uptake.; 12 days Storage @ 25° C./60% RH ([2]; 12 days, 25° C./60% RH): Unchanged; 12 days Storage @ 40° C./60% RH ([2]; 12 days, 40° C./60% RH): Unchanged

**Q.** Which “Aqueous Solubility (25° C.)” value [3] does the source give for `CC[C@H]1[C@@H](O)C2C3CC[C@H]([C@H](C)CCOS(=O)(=O)[O-])[C@@]3(C)CCC2[C@@]2(C)CC[C@@H](O)C[C@@H]12.[Na+]` (stereo partly drawn) [Amorphous Compound 1-Na, 6α-ethyl-3α,7α,23-trihydroxy-24-nor-5β-cholan-23-sulphate sodium] here?
**A.** The value was greater than 200 mg/mL.

**Q.** What about the solubility [3] of the same molecule?
**A.** The solubility was greater than 200 mg/mL.

**Q.** What about the “Storage @ 25° C./60% RH” value ([2]; 25° C./60% RH) of the same molecule?
**A.** The value was “Unchanged for at least 1 month”.

**Q.** And the “Storage @ 25° C./60% RH” value ([2]; 25° C./60% RH, listed as Amorphous Form of Compound 1-Na)?
**A.** The value was “physically stable for at least 1 month”.

**Q.** What about the “Storage @ 25° C./97% RH” value [2] of the same molecule?
**A.** The value was “Deliquesced in less than days”.

**Q.** What about the “Storage @ 25° C./97% RH” value [2, 5] of the same molecule?
**A.** Its value is “deliquescent”.

**Q.** What about the “Storage @ 40° C./75% RH” value [2] of the same molecule?
**A.** Its value is “Deliquesced in less than 3 days”.

**Q.** What about the “Storage @ 40° C./75% RH” value [2, 5] of the same molecule?
**A.** Its value is “deliquescent”.

**Q.** For `CC[C@H]1[C@@H](O)C2C3CC[C@H]([C@H](C)CCOS(=O)(=O)[O-])[C@@]3(C)CCC2[C@@]2(C)CC[C@@H](O)C[C@@H]12.[Na+]` (stereo partly drawn) [Example 5, 6α-ethyl-3α,7α,23-trihydroxy-24-nor-5β-cholan-23-sulphate sodium], which “GVS water uptake from 40% to 80% RH” value ([1]; 25° C., 40% to 80% RH) is on record?
**A.** Its value is 4 % w/w.

**Q.** What about the “GVS water uptake from 40% to 80% RH (equivalents of water)” value ([1]; 25° C., 40% to 80% RH) of the same molecule?
**A.** Its value is 1.1 eq.

**Q.** What about the “GVS water uptake from 80% to 90% RH” value ([1]; 25° C., 80% to 90% RH) of the same molecule?
**A.** Its value is 24 % w/w.

**Q.** And the “GVS water uptake from 80% to 90% RH (equivalents of water)” value ([1]; 25° C., 80% to 90% RH)?
**A.** The value was 6.6 eq.

**Q.** And the “GVS: state of sample during the analysis” value ([1]; 25° C., up to 90% RH)?
**A.** Its value is “the sample deliquesced”.

**Q.** What about the “Hygroscopic profile from 40% to 80% RH” value ([1]; 40% to 80% RH) of the same molecule?
**A.** Its value is “moderate hygroscopic profile”.

**Q.** What about the “GVS water uptake at RH greater than 80%” value ([1]; RH greater than 80%) of the same molecule?
**A.** The value was 24%.

**Q.** And the “GVS water uptake at RH greater than 80% (equivalents of water)” value ([1]; RH greater than 80%)?
**A.** The value was 6.6 eq.

**Q.** What about the “Hygroscopic profile at RH greater than 80%” value ([1]; RH greater than 80%) of the same molecule?
**A.** Its value is “very hygroscopic profile”.

**Q.** And the VT-XRPD [4]?
**A.** The VT-XRPD was “unchanged upon heating”.

**Q.** And the “Storage @ 25° C./60% RH” value ([2]; 25° C./60% RH)?
**A.** The value was “stable for at least one month; also recorded: Unchanged for at least 1 month”.

**Q.** And the “Storage @ 25° C./97% RH” value [2]?
**A.** The value was “deliquesced sample after 3 days; also recorded: Deliquesced in three days”.

**Q.** What about the “Storage @ 40° C./75% RH” value [2] of the same molecule?
**A.** The value was “deliquesced sample after 3 days; also recorded: Deliquesced in three days”.

**Q.** What does the source list for `CC[C@H]1[C@@H](O)C2C3CC[C@H]([C@H](C)CCOS(=O)(=O)[O-])[C@@]3(C)CCC2[C@@]2(C)CC[C@@H](O)C[C@@H]12.[Na+]` (stereo partly drawn) [Form A of Compound 1-Na Formed via Suspension] [6α-ethyl-3α,7α,23-trihydroxy-24-nor-5β-cholan-23-sulphate sodium]?
**A.** Storage @ 25° C./60% RH ([2]; 25° C./60% RH): successful for at least 1 month; also recorded: Unchanged for at least 1 month; Storage @ 25° C./97% RH [2]: Deliquesced in less than 3 days; Storage @ 40° C./75% RH [2]: Deliquesced in less than 3 days

From patent publication US20200024299A1, “CRYSTALLINE FORMS OF A BILE ACID DERIVATIVE” (Intercept Pharmaceuticals, Inc., priority 2016, published 2020)
